Read-outs that look alike come from different tables or passages of the source.
What was measured:
[1] = test system: Potassium Voltage-Gated Channel Kv non-selective, KCNQ1 (r); assay: IPP KCNQ1 binding (antagonist radioligand); set-up: species or system rat
mouse = conditions: ref SCCS; cited from earlier work
[2] = human
[3] = test system: Gamma-aminobutyric acid receptor subunit alpha-1 BZD site, GABRA1A (r); assay type: binding, rat; conditions: IPP screening at 100 uM; control diazepam
Tubulin (r) = assay: IPP Tubulin binding; set-up: species or system rat; conditions: 100 uM; ligand/control Colchicine
[4] = test system: Sodium channel protein type 5 subunit alpha (site 2), SCN5A (r); assay type: binding, rat; conditions: IPP screening at 100 uM; control veratridine
[5] = test system: Thyroid hormone receptor alpha, THRA (h); assay: IPP THRA coactivator recruitment (agonist); assay type: biochemical, human; conditions: 100 uM; agonist; T3; * denotes assay interference (2-Amino-6-chloro-4-nitrophenol, HC Red 3)
[6] = molecular target: T1, Pregnane X receptor PXR, NR1I2 (h) (Homo sapiens, UniProt O75469)
T1 sequence (O75469 1-434): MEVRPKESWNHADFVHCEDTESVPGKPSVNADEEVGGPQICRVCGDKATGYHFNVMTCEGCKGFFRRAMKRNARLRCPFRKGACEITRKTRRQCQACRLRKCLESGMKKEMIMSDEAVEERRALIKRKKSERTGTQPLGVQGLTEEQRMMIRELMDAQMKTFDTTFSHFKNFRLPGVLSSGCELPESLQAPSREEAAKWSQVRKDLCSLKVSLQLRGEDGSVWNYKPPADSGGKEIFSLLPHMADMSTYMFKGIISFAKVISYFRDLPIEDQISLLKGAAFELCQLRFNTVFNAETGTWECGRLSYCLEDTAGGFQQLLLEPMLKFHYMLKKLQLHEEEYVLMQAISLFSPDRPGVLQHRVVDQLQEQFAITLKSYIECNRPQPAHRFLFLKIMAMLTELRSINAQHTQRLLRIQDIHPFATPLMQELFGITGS

[7] = molecular target: T2, Constitutive androstane receptor CAR, NR1I3 (h) (Homo sapiens, UniProt Q14994); assay type: biochemical
T2 sequence (Q14994 1-352): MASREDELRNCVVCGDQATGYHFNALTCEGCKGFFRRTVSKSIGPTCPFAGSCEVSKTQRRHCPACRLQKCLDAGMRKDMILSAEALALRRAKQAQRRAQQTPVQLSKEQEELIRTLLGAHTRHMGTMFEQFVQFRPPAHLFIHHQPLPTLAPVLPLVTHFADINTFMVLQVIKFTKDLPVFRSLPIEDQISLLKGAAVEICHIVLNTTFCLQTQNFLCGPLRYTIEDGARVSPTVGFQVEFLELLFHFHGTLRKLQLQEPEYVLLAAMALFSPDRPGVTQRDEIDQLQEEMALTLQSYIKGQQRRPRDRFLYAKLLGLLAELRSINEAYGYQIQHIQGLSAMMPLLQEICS

[8] = molecular target: T3, Adenosine receptor A2a, ADORA2A (h) (Homo sapiens, UniProt P29274); assay: IPP ADORA2A binding (agonist radioligand); conditions: IPP screening at 100 uM; control NECA
T3 construct: purchased Eurofins Cerep (SafetyScreen44-based IPP panel)

[9] = test system: Glutamate receptor ionotropic NMDA 1 non-selective, GRIN1 (r); conditions: IPP screening at 100 uM; control CGS 19755
[10] = molecular target: Potassium voltage-gated channel subfamily H member 2 hERG, KCNH2 (h) (Homo sapiens, UniProt Q12809)
HepG2 cells [11] = assay: Cell stress panel (CSP), 24 h, 8 concentrations, BIFROST global PoD; assay type: cell-based; conditions: HepG2; cell stress panel PoD
Procedure: Compounds were tested using the previously developed cell stress panel ([Hatherell et al. 2020]) and the expanded biomarker panel outlined in Middleton et al. HepG2 cells were treated with all compounds for 24 h across 8 concentrations prior to biomarker analysis. The same plate layout and number of replicates (3 biological and 2 technical) were used as previously for each assay within the panel.

[12] = PBK input, level L2; ref [10]; cited from earlier work
[13] = human; remark: listed apart in the source
[14] = human, cited from earlier work
MCF7 cells = assay: High-throughput transcriptomics (HTTr, TempO-Seq), MCF7, 24 h; assay type: cell-based, human; conditions: MCF-7
Procedure: (§1) HepG2, HepaRG, and MCF7 cells were treated with each compound for 24 h across a dose range of 7 concentrations and lysed using TempO-Seq lysis buffer (BioSpyder Technologies, proprietary kit, see [Middleton et al. 2022] for method details). Sequencing was performed using TempO-Seq (BioClavis) version 2 of the human whole transcriptome panel and analyzed as described previously in Middleton et al.

[15] = PBK model plasma Cmax estimate (Gastroplus 9.8; levels L1, L2, L3); set-up: species or system human; conditions: therapeutic uses
HepaRG cells = assay: High-throughput transcriptomics (HTTr, TempO-Seq), HepaRG, 24 h; assay type: cell-based, human
Procedure: as §1

[16] = molecular target: vitamin K epoxide reductase enzyme (VKORC1); conditions: ref Bevans et al. 2013, cited from earlier work
HepG2 cells [17] = assay: High-throughput transcriptomics (HTTr, TempO-Seq), HepG2, 24 h; assay type: cell-based, human; conditions: HepG2
Procedure: as §1

[18] = molecular target: Voltage-dependent L-type Ca2+ channel (dihydropyridine site), CACNA1C (r) (Rattus norvegicus, UniProt P22002); assay type: binding; conditions: IPP screening at 100 uM; control nitrendipine
[19] = PO 15 mg, tablet, 8 male, Fasted, calibration, ref Stirling Y, et al. British Journal of Haematology (1982) 51: 37-46

Sequence of Potassium voltage-gated channel subfamily H member 2 hERG, KCNH2 (h) (Q12809 whole entry): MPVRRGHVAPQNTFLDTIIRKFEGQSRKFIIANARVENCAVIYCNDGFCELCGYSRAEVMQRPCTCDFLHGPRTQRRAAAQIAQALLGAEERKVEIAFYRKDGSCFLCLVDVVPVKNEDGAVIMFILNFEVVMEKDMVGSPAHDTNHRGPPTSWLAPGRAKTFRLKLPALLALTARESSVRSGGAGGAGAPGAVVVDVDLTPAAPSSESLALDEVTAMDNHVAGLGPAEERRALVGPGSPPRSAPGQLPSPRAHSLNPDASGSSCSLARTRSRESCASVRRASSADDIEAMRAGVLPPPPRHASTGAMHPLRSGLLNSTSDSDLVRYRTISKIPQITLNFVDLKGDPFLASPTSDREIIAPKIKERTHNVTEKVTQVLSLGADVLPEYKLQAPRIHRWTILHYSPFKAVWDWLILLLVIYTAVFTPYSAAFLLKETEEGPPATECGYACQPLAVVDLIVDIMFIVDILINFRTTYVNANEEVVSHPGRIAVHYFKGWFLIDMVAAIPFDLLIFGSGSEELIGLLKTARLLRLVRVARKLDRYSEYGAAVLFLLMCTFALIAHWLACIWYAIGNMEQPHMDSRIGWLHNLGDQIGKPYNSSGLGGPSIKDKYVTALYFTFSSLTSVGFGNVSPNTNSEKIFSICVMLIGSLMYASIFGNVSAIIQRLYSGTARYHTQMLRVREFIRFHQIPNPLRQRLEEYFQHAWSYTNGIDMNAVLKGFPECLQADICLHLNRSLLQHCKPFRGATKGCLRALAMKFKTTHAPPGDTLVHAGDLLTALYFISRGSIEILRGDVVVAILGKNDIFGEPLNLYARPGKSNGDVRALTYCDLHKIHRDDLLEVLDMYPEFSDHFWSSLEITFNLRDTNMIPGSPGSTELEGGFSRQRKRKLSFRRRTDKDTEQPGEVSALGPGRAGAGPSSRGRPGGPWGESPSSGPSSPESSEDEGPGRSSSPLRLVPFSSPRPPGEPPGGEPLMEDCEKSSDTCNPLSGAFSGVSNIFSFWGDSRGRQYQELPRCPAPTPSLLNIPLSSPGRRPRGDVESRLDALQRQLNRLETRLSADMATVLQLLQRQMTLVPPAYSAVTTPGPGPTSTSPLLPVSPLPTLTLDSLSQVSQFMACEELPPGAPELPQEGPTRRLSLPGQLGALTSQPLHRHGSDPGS
T3 sequence (P29274 whole entry): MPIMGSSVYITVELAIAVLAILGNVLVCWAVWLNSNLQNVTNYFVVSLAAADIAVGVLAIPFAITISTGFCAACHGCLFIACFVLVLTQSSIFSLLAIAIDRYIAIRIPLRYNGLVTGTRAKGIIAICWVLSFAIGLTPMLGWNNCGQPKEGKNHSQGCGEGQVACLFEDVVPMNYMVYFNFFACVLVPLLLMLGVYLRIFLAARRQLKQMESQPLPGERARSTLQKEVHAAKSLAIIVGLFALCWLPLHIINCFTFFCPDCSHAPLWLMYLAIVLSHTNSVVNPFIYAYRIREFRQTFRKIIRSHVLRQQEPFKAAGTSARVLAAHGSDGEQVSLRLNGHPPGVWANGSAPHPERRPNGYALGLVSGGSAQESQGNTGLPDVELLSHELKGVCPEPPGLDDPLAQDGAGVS
Sequence of Voltage-dependent L-type Ca2+ channel (dihydropyridine site), CACNA1C (r) (P22002 whole entry): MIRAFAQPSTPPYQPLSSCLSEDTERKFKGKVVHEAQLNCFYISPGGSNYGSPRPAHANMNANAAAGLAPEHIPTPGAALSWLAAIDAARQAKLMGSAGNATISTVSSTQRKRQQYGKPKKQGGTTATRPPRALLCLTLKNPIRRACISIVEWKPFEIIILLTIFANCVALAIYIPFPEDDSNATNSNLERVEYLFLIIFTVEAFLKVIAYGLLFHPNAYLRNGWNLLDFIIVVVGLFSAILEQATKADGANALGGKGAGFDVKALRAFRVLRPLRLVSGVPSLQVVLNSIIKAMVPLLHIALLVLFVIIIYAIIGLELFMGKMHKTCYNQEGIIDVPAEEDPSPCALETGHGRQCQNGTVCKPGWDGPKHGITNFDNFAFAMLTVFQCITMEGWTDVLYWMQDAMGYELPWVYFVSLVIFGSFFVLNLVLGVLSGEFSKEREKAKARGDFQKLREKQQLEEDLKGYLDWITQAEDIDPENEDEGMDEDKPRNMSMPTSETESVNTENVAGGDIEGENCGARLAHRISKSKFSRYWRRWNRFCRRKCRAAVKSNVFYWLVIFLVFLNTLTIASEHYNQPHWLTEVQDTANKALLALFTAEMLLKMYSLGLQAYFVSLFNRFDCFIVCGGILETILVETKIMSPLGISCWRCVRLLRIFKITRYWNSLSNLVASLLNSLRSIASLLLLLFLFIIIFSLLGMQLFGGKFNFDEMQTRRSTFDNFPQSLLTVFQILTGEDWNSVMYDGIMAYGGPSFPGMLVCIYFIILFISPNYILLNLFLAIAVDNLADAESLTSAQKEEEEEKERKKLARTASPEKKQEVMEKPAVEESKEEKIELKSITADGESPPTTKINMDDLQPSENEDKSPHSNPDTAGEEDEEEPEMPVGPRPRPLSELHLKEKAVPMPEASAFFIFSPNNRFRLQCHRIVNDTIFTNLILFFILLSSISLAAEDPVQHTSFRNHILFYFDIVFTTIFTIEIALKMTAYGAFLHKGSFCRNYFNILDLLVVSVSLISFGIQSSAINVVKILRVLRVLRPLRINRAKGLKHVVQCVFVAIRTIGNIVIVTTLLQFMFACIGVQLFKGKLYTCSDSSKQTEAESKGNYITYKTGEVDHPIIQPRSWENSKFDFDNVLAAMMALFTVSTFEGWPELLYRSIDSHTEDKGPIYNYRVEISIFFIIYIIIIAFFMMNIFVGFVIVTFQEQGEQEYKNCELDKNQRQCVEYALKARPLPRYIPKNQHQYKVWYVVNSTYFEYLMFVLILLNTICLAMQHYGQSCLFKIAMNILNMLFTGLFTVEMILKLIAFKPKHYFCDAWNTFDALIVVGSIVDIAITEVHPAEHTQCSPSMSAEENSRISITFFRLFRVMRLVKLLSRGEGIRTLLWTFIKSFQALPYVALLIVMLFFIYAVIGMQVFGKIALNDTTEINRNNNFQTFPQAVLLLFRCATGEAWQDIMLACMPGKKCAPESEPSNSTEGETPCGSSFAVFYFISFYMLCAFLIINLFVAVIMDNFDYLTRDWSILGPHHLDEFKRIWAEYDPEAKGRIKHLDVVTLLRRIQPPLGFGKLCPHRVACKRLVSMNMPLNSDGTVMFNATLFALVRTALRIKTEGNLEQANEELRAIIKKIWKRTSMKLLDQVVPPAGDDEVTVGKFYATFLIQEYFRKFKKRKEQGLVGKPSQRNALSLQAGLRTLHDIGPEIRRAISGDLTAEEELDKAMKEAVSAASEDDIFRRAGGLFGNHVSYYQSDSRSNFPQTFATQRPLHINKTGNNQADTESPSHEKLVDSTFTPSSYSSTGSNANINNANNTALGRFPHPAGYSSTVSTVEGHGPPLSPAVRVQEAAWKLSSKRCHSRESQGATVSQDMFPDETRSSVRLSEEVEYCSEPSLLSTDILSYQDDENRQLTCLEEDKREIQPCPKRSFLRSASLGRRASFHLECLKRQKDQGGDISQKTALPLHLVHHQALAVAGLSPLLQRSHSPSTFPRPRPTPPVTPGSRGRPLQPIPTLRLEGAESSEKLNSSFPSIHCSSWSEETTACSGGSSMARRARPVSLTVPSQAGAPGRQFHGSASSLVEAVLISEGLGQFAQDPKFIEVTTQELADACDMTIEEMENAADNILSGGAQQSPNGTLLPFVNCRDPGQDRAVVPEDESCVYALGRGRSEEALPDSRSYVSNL

Nc1ccc(NCCO)c([N+](=O)[O-])c1 [HC Red 3, 2-(4-Amino-2-nitroanilino)ethan-1-ol]
Specific binding ([1]; IPP screening at 100 uM, control α-dendrotoxin): -2.7%
NOAEL before adjustment for 5 day dosing regimen (mouse): NOAEL of 125 mkd adjusted for 5 day dosing regimen. 90 mkd used as critical PoD by SCCS
risk [2]: 0
Specific binding [3]: 16.3%
IPP screening %, Specific binding (Tubulin (r)): -13.0%
Specific binding [4]: 38.7%
IPP screening %, Coactivator recruitment [5]: 628.0* %
IPP Dose Response PoD: PXR antagonist [6]: [4.11, 6.71]
IPP Dose Response PoD: CAR antagonist effect [7]: [29.7,46.9]
Specific binding [8]: 18.0%
Specific binding [9]: 0.4%
IPP screening %, Specific binding ([10]; 100 uM, [3H] Dofetilide, control Terfenadine): 16.3%
pod_cell_stress PoD (HepG2 cells [11]): 1.583 µM

CC(=O)CC(c1ccccc1)c1c([O-])c2ccccc2oc1=O.[Na+] (stereo not shown) [Warfarin, Sodium 2-oxo-3-(3-oxo-1-phenylbutyl)-2H-1-benzopyran-4-olate]
Specific binding [1]: 7.0%
Fup [12]: 2%
Intrinsic Liver Clearance [13]: 14.41 L/h
Specific binding [3]: 0.6%
IPP screening %, Specific binding (Tubulin (r)): 3.0%
Reported AUC0-t [14, 19]: 54300 ng·h/mL
Reported cmax [14, 19]: 1.305 µg/mL
Reported tmax [14, 19]: 1 h
Cmax ([14]; read-out: typical Cmax reported in the literature, ref literature, not specified): 0.6 to 6 µM
pod_httr_bifrost PoD (MCF7 cells; HTTr BIFROST PoD): 19.7041 µM
podl_path_minbmd PoD (MCF7 cells; HTTr minimum pathway BMD(L)): 167.012 µM
underprediction of the L3 result at L2 (Cmax) [15]: ≥ 5 fold
HepaRG minimum pathway BMDL (HepaRG cells; BMDExpress2, highest of the chemical's PoDs): 259 µM
pod_httr_bifrost PoD (HepaRG cells; HepaRG, HTTr BIFROST PoD): 13.5544 µM
podl_path_minbmd PoD (HepaRG cells; HepaRG, HTTr minimum pathway BMD(L)): 258.74 µM
HepaRG BIFROST global PoD (HepaRG cells; lowest of the chemical's PoDs): 13.6 µM
Specific binding [4]: 0.7%
IPP screening %, Coactivator recruitment [5]: -2.0%
IC50 ([16]; read-out: IC50 on the VKORC1 enzyme, lower end of literature range): 24.7 nM
IC50 ([16]; read-out: IC50 on the VKORC1 enzyme, upper end of literature range): 4000 nM
pod_httr_bifrost PoD (HepG2 cells [17]; HTTr BIFROST PoD): 14.2833 µM
podl_path_minbmd PoD (HepG2 cells [17]; HTTr minimum pathway BMD(L)): 164.109 µM
Specific binding [8]: -14.2%
Specific binding [9]: 7.9%
IPP screening %, Specific binding ([10]; human): 10.1%
Specific binding [18]: -1.9%
pod_cell_stress PoD (HepG2 cells [11]): 13.7726 µM

Reference: article PMC11879040, “Advancing systemic toxicity risk assessment: Evaluation of a NAM-based toolbox approach” (Toxicological Sciences, 2024)
